The results in this text go back to patent US6376500B2, “Substituted 2-(4-piperidyl)-4(3H)-quinazolinones and 2-(4-piperidyl)-4(3H)-azaquinazolinones” (Syntex (U.S.A.) LLC, priority 1999, dated 2002).

One may read the melting point as the temperature of the solid-liquid transition.

Where a name gives a salt, the structure may show the parent alone.

The first series has as its system anesthetized dog. The series can be described thus: Dog in vivo blood and intraurethral pressure assay. The conditions noted are these: i.v., anesthetized mongrel dogs. The method, then:
The following describes an in vivo assay for measuring the relative effect of test compounds on hypogastric nerve stimulation-induced increases in intraurethral pressure and phenylephrine-induced increases in diastolic blood pressure in anesthetized dog.
Mongrel dogs (10 to 20 kg) were fasted for 12 to 18 hours and anesthetized with […] (35 mg/kg, i.v.). An endotracheal tube was inserted and thereafter the lungs were mechanically ventilated with room air. The right femoral vein was isolated and cannulated with two polyethylene cannulae, one for the administration of a continuous infusion of phenobarbital sodium (5 to 10 mg/kg/hr) and the other for bolus administration of test substances. The right femoral artery was isolated and cannulated to the abdominal aorta with a fluid filled polyethylene cannula connected to an external pressure transducer for monitoring diastolic aortic pressure (DAP). The bladder was exposed via a ventral midline abdominal incision and emptied of urine through a 22 gauge needle. The bladder was cannulated through a stab incision with a water filled balloon catheter connected to an external pressure transducer for monitoring prostatic intraurethral pressure (IUP). The right hypogastric nerve (HGN) was carefully isolated and attached to a Dastre's electrode for nerve stimulation. […]
Regarding `COc1cc2nc(N3CCN(C(=O)c4ccco4)CC3)nc(N)c2cc1OC` [prazosin], the “inhibition of HGN stimulation-induced increases in IUP and phenylephrine-induced increases in DAP” value is “inhibited increases in IUP and DAP in similar fashion”.

System in another series: not given
Assay: not given
Conditions: not given
For the molecule `Cl.O=c1[nH]c(C2CCN(CCc3c[nH]c4cc(F)ccc34)CC2)nc2ccc(Cl)cc12`, the melting point was 292 to 294 °C.
On the same count and under the same terms, the value for `Cl.O=c1[nH]c(C2CCN(CCc3c[nH]c4ccc(F)cc34)CC2)nc2cc(Cl)ccc12` was 300 °C (dec.).
Still for that read-out and setting: under `O=c1[nH]c(C2CCN(CCc3c[nH]c4ccccc34)CC2)nc2ccccc12` (as salt: hydrochloride) stands 268 to 270 °C; under `Cl.O=c1[nH]c(C2CCN(CCc3c[nH]c4cc(F)ccc34)CC2)nc2ccccc12`, 263 to 264 °C.
Still for that read-out and setting: the value for `COc1ccc2nc(C3CCN(CCc4c[nH]c5cc(F)ccc45)CC3)[nH]c(=O)c2c1.Cl` was 230 to 232 °C.
As to `Cl.Cl.O=c1[nH]c(C2CCN(CCc3c[nH]c4cc(F)ccc34)CC2)nc2ccc(F)cc12`, the melting point lay in the range of 195 to 197 °C.
The molecule `Cl.Cl.O=c1[nH]c(C2CCN(CCc3c[nH]c4ccccc34)CC2)nc2cc(Cl)ccc12` came in with a melting point of 190 to 195 °C.
In turn, `Cl.O=c1[nH]c(C2CCN(CCc3c[nH]c4cc(F)ccc34)CC2)nc2cc(F)ccc12` showed a melting point of 205 to 209 °C.
The same measure, in the same setting: under `Cl.O=c1[nH]c(C2CCN(CCc3c[nH]c4cc(F)ccc34)CC2)nc2cc(Cl)ccc12` stands 256 to 266 °C; under `Cl.O=c1[nH]c(C2CCN(CCc3c[nH]c4ccc(F)cc34)CC2)nc2cc(F)ccc12`, 283 °C (dec.).
`Cl.O=c1[nH]c(C2CCN(CCc3c[nH]c4ccc(F)cc34)CC2)nc2ccccc12` showed a melting point of 298 to 301 °C.
On the same count and under the same terms, under `Cl.O=c1[nH]c(C2CCN(CCc3c[nH]c4ccc(F)cc34)CC2)nc2ccc(Cl)cc12` stands 290 °C (dec.); under `Cl.O=c1[nH]c(C2CCN(CCc3c[nH]c4ccccc34)CC2)nc2cc(F)ccc12`, 220 to 225 °C.
On the same count and under the same terms, under `COc1cc2nc(C3CCN(CCc4c[nH]c5cc(F)ccc45)CC3)[nH]c(=O)c2cc1OC.Cl` stands 229 to 231 °C.
The same measure, in the same setting: under `Cl.Cl.O=c1[nH]c(C2CCN(CCc3c[nH]c4cc(F)ccc34)CC2)nc2cc(F)c(F)cc12` stands 215 to 217 °C.
